For one data set, the system named is HCT116 spheroids. Nature of the data set: Spheroid growth, HCT116. The class given is cell-based, human. As to conditions: 10 µM, 96 h treatment. The method, then: For growing multicellular tumor spheroids, 400 HCT116, 400 HT29 or 800 MCF-7 cells per well were plated into round-bottom ultra-low attachment 96-well plates (Corning, Glendale, AZ, USA) in the media described above and incubated at 37 °C for 96 h. Spheroids were treated with 10 µM of the two most cytotoxic compounds 3 and 4 for another 96 h. The diameters of the spheroids were measured with Cell^F software under a CKX41 Olympus microscope before treatment and in constant daily intervals over the 96 h treatment period. For statistical analysis the t-test with Welsh’s correction was implemented in GraphPad Prism software (Version 6.01).

Another data set concerns pUC19 plasmid. Nature of the data set: Electrophoretic dsDNA plasmid assay. Format: biochemical. As to conditions: 50 µM, up to 6 h, 37 °C. The method, then:
An amount of 400 ng of the pUC19 plasmid (2686 bp, New England Biolabs, Ipswich, MA, USA) was incubated with the test compounds (50 µM). Stock solutions of the test compounds were prepared in MilliQ water. The samples were incubated for different intervals (15 min to 6 h) with continuous shaking at 37 °C. Following the incubation time, 4 µL aliquots of 6 × DNA loading dye (Thermo Fisher, Kandel, Germany) were added to the 20 µL DNA samples. Electrophoresis was performed in a 1% agarose gel in 1 × TBE buffer, started at 60 V for 5 min and continued at 120 V for 90 min. Ethidium bromide (EtBr, Serva Electrophoresis GmbH, Heidelberg, Germany) staining was conducted in 1 × TBE (0.75 µg/mL) for 20 min. Images were taken by the GelDoc Imaging System Fusion F×7 (Vilber Lourmat, Eberhardzell, Germany). For quantification ImageJ/Fiji1.46 was used.

Data set [1] can be described thus: Cell-free DCF fluorescence quenching assay. Here is the method: To verify interactions of complex 4 with the fluorescence of DCF (2′,7′-dichlorofluorescein, Sigma-Aldrich), a fluorescence quenching assay was performed. For this purpose, DCF was dissolved in abs. ethanol (Sigma-Aldrich), diluted in phenol-red-free MEM (1% FBS) to 5 µM and complex 4 dissolved in DMF, diluted to 20 and 200 µM in the same medium. Furthermore, two combinations of 5 µM DCF with 20 and 200 µM of complex 4 were prepared. The fluorescence intensity of the substances alone and their combinations were measured (excitation: 485/20 nm, emission: 516/20 nm) in 10 min intervals with the Synergy HT reader (BioTek) over 2 h.

A further data set relates to HT29 cells. As to conditions: 200 µM.
The test system of a further data set is MCF-7 cells. As to conditions: 200 µM.

Consider `F[P-](F)(F)(F)(F)F.O=c1c([O-])c(-c2ccc(Cl)cc2)oc2ccccc12.[W+4].c1cc[cH-]c1.c1cc[cH-]c1` [Compound 3, Bis(η^5-cyclopentadienyl)[2-(4-chlorophenyl)-3-(oxo-κO)-4(H)-chromen-4-oato-κO]tungsten(IV) hexafluorophosphate], for which the spheroid growth result in the data set with HCT116 spheroids is recorded as “markedly reduced growth”. The “interaction with plasmid dsDNA” value with pUC19 plasmid was “showing the ability to induce DNA nicks”.

Consider `F[P-](F)(F)(F)(F)F.[O-]c1c(-c2ccc(Cl)cc2)oc2ccccc2c1=S.[W+4].c1cc[cH-]c1.c1cc[cH-]c1` [Compound 4, Bis(η^5-cyclopentadienyl)[2-(4-chlorophenyl)-3-(oxo-κO)-4(H)-chromen-4-thionato-κS]tungsten(IV) hexafluorophosphate], for which the spheroid growth entry in the data set with HCT116 spheroids was “completely stopped spheroid growth”. The “lower fluorescence intensity relative to DCF (5 µM) alone” value in data set [1] (DCF 5 µM + complex 20 µM) was 36.8%; in data set [1] (DCF 5 µM + complex 200 µM), 77.2%.

As to `F[P-](F)(F)(F)(F)F.O=C([O-])c1ccccn1.[W+4].c1cc[cH-]c1.c1cc[cH-]c1` [Compound 5, Bis(η^5-cyclopentadienyl)[2-(carboxylato-κO)-pyridine-κN]tungsten(IV) hexafluorophosphate], the “viable cells [%] AV- / PI-” value in the data set on HT29 cells turned out to be 91.5 ± 8.9%; in the data set with MCF-7 cells, 86.6 ± 7.6%.

Take `Cc1cc(=S)c([O-])co1.F[P-](F)(F)(F)(F)F.[W+4].c1cc[cH-]c1.c1cc[cH-]c1` [Compound 8, Bis(η^5-cyclopentadienyl)[2-methyl-5-(oxo-κO)-pyran-4-(1H)-thionato-κS] tungsten(IV) hexafluorophosphate]: the “single-strand breaks (sc form to oc form)” value in the data set on pUC19 plasmid was determined as 15 ± 2%.

The values are drawn from article PMC10384408, “Anticancer Tungstenocenes with a Diverse Set of (O,O–), (O,S–) and (O,N–) Chelates—A Detailed Biological Study Using an Improved Evaluation via 3D Spheroid Models” (Pharmaceutics, 2023).
